The record followed here is patent publication US20250205205A1, “METHODS AND COMPOSITIONS FOR PREVENTING AND TREATING FIBROSIS AND IMPROVING FUNCTIONAL RECOVERY AFTER INJURY OR WITH AGING” (East Carolina University, priority 2022, published 2025).

Test [1] relates to sciatic nerve. The test can be described thus: Sciatic nerve function: compound action potentials (CAPs) on electrical stimulation after sciatic nerve injury and long-term treatment (FIG. 2). Format: in vivo. The following applies: sciatic nerve injury; daily treatments of 100 μl in saline; PPX 0.5 mg/kg, morphine 1 mg/kg, alone or combined; representative animal.
Description: FIG. 2 depicts the in vitro effects of different long-term treatments on sciatic nerve function, as assessed by the response profiles of these nerves to electrical stimulation.
The CAP is an indicator of electrical activity in the nerve that is required for normal transmission of sensory information.
The effects in vitro of long-term treatments on sciatic nerve function were assessed by the response profiles of these nerves to electrical stimulation as shown in FIG. 2.
Test [2] has as its system sciatic nerve injury. Nature of the test: Pain withdrawal reflex latencies after unilateral sciatic nerve injury and long-term treatment (FIG. 3). The following applies: unilateral sciatic nerve injury; long-term treatment; PPX 0.5 mg/kg, morphine 1 mg/kg, alone or combined. The class given is in vivo.
Excerpt: Filled circles show the reflex data of the injured side of the animal. […] Filled circles show the reflex data of the injured side of the animal. […] Filled circles show the reflex data of the injured side of the animal.

Consider `CN1CC[C@]23c4c5ccc(O)c4O[C@H]2[C@@H](O)C=C[C@H]3[C@H]1C5` [morphine], for which, in test [1], the “compound action potential (CAP) on stimulation of the nerve on the injured side” value was “failed to elicit a similarly strong CAP”. The “pain withdrawal reflex latencies of the injured side versus pre-injury data (days −3 to −1)” value in test [2] is recorded as “did not lead to a recovery of withdrawal latencies to pre-injury data”.
